A short description of the data set: MTS cytotoxicity assay on SVR cells. It counts as cell-based. To be noted: mouse, SVR cells, 48 hours, MTS, read-out: Viability of SVR cells compared to control, Ave (%). As to the method: 1. Testing concentrations of ACT-1 and ACT-2: 8 mM, 4 mM, 2 mM, 1 mM, 0.5 mM, 0.25 mM and 0.125 mM. 2. Trypsinized exponentially growing BAECs (P1) and SVR cells (P4), and prepared 5×10^4 cells/mL cell solution for BAECs and […] for SVR cells. Add 100 μl of cell solution to 96-well plates to achieve 5,000 cells/well for BAECs and 1,000 cells/well for SVR cells. Incubated cells at 37° C. overnight. 3. Prepared 8 mM=3.64 mg/mL and 8 mM ACT-2=3.62 mg/mL in BAEC complete culture medium. Sterilized the drug solutions by filtering through 0.2 μm syringe filters. 4. Prepared 2× serial dilutions from 8 mM stock solution by mixing 0.6 mL drug solution with 0.6 mL culture medium. 5. Aspirated medium from wells and added 80 μl of test article solutions to the wells according to the layout below.
6. Incubated cells at 37° C. for 48 hours. 7. Aspirated the medium from wells and added fresh 70 μl culture medium to the wells. 8. Prepared MTS reagent (Promega CellTiter 96 Aqueous MTS assay reagents, Cat #G5421) by mixing 2.4 mL MTS, 120 μl PMS and 3.779 mL culture medium. Added 50 μl MTS assay reagent to the wells using a multiple channel pipette. 9. Incubate at 37° C. for 2 hours. Read absorbance at 490 nm using a plate reader.
A general note: Tetrazolium dyes change colour on reduction, which living cells bring about.

Consider `CC(C)CC(NC[C@@]1(O)OC[C@@H](O)[C@@H](O[C@@H]2O[C@H](CO)[C@H](O)[C@H](O)[C@H]2O)[C@@H]1O)C(=O)O` (stereo in doubt) [ACT-1], for which the viability at 48 h, 0.125 mM was found to be 97.4%; the viability at 48 h, 0.25 mM was found to be 99.7%; the viability at 48 h, 0.5 mM was found to be 100%; the viability at 48 h, 1 mM is 97.7%. Moreover, the viability at 48 h, 2 mM was found to be 95.8%; the viability at 48 h, 4 mM came out at 93.1%; the viability at 48 h, 8 mM stood at 71.2%.

`O=C(O)[C@H](CC1CC1)NC[C@@]1(O)OC[C@@H](O)[C@@H](O[C@@H]2O[C@H](CO)[C@H](O)[C@H](O)[C@H]2O)[C@@H]1O` [ACT-2]: the viability at 48 h, 0.125 mM was 98.2%; the viability at 48 h, 0.25 mM was 105%; the viability at 48 h, 0.5 mM was found to be 98.7%; the viability at 48 h, 1 mM came to 92.5%. The viability at 48 h, 2 mM amounted to 95.1%; the viability at 48 h, 4 mM was determined as 87.8%; the viability at 48 h, 8 mM came out at 76.1%.

What is called viability is a read-out of living cells in per cent, often relative to untreated cells.

The values above are taken from patent US20130196935A1, “SYNTHETIC GLYCOAMINE COMPOUNDS” (ANIMAL CELL THERAPIES INC., priority 2012, published 2013).
